# Measurements reported in US20050222147A1, “Process for the preparation of morpholine derivatives and intermediates therefore” (priority 2000, published 2005).
# Where a name gives a salt, the structure may show the parent alone.
# Target: T1, CCR-3 (Homo sapiens, UniProt P51677)
# T1 construct: expressed in transfected cells
# T1 sequence (P51677 1-355): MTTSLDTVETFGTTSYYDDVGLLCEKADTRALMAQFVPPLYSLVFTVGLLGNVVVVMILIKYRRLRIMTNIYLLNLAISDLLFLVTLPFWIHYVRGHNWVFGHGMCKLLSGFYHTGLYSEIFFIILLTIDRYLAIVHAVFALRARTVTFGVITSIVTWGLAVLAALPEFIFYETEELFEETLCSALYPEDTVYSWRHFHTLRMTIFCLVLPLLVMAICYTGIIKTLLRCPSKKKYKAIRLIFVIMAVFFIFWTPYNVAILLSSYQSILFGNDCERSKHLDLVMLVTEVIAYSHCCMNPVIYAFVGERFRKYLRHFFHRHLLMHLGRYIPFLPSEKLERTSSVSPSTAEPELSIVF
# Experiment: CCR-3 competition binding SPA (scintillation proximity assay)
# Conditions: read-out: CCR-3 Binding Assay (pIC50) (converted)
# Method: A CCR-3 competition binding SPA (scintillation proximity assay) was used to assess the affinity of novel compounds for CCR-3. Membranes prepared from K562 cells stably expressing CCR-3 (2.51 μg/well) were mixed with 0.25 mg/well wheat-germ agglutinin SPA beads (Amersham) and incubated in binding buffer (HEPES 50 mM, CaCl2 1 mM, MgCl2 5 mM, 0.5% BSA) at 4° C. for 1.5 hr. Following incubation, 20 pM of [^125I) eotaxin (Amersham) and increasing concentrations of compound (1 pM to 30 μM) were added and incubated in a 96 well plate for 2 hr at 22° C. then counted on a Microbeta plate counter. The total assay volume was 100 μl. Competition binding data were analysed by fitting the data with a four parameter logistic equation. Data are presented as the mean pIC50 values (negative logarithm of the concentration of compound which inhibits [^125I] eotaxin binding by 50%) from at least two experiments.
row,Structure (SMILES),IC50 [nM]
1,"O=C(Cc1cccc(C(=O)NC2CC2)c1)NCC1CN(Cc2ccc(Cl)c(Cl)c2)CCO1 (stereo not drawn) [Example 53, N-Cyclopropyl-3-[2-({[(3,4-dichlorobenzyl)morpolin-2-yl]methyl}amino)-2-oxoethyl]benzamide]",4.07
2,"COc1ccc2[nH]c(C)c(CC(=O)NCC3CN(Cc4ccc(Cl)c(Cl)c4)CCO3)c2c1 (stereo not drawn) [Example 31, N-{[4-(3,4-Dichlorobenzyl)morpholin-2-yl]methyl}-2-(5-methoxy-2-methyl-1H-indol-3-yl)acetamide]",513
3,"Cc1oc(-c2ccccc2)nc1CC(=O)NC[C@H]1CN(Cc2ccc(Cl)c(Cl)c2)CCO1 [Example 54, N-{[(2S)-4-(3,4-Dichlorobenzyl)morpholin-2-yl]methyl}-2-(5-methyl-2-phenyl-1,3-oxazol-4-yl)acetamide]",24
4,NS(=O)(=O)c1cccc(CC(=O)NC[C@H]2CN(Cc3ccc(Cl)c(Cl)c3)CCO2)c1 [Example 162],12.6
5,"O=C(Cc1ccco1)NCC1CN(Cc2ccc(Cl)c(Cl)c2)CCO1 (stereo not drawn) [Example 38, N-{[4-(3,4-Dichlorobenzyl)morpholin-2-yl]methyl}-2-(2-furyl)acetamide]",100
6,Cc1nn(CC(=O)NCC2CN(Cc3ccc(Cl)c(Cl)c3)CCO2)c(C)c1Br (stereo not drawn) [Example 35],155
7,"COc1ccc(CC(=O)NCC2CN(Cc3ccc(Cl)c(Cl)c3)CCO2)cc1 (stereo not drawn) [Example 22, N-{[4-(3,4-Dichlorobenzyl)morpholin-2-yl]methyl}-2-(4-methoxyphenyl)acetamide]",110
8,"NC(=O)c1ccc(CC(=O)NCC2CN(Cc3ccc(Cl)c(Cl)c3)CCO2)cc1 (stereo not drawn) [Example 10, 4-[2-({[4-(3,4Dichlorobenzyl)morpholin-2-yl]methyl}amino)-2-oxoethyl]benzamide]",158
9,"C[C@H]1CO[C@H](CNC(=O)Cc2ccccc2)CN1Cc1ccc(Cl)c(Cl)c1 (relative stereo) [Example 25, N-{[(trans)4-(3,4-Dichlorobenzyl)-5-methylmorpholin-2-yl]methyl}-2-phenylacetamide]",60.3
10,"CS(=O)(=O)Nc1ccc(CC(=O)NC[C@H]2CN(Cc3ccc(F)cc3)CCO2)cc1 [Example 46, N-{[(2S)-4-(4-Fluorobenzyl)morpholin-2-yl]methyl}-2-{4-[(methylsulfonyl)amino]phenyl}acetamide]",72.4
11,"O=C(Cc1cc(Cl)ccc1Cl)NCC1CN(Cc2ccc(Cl)c(Cl)c2)CCO1 (stereo not drawn) [Example 13, N-{[4-(3,4-Dichlorobenzyl)morpholin-2-yl]methyl}-2-(2,5-dichlorophenyl)acetamide]",240
12,"CSc1ccc(CC(=O)NCC2CN(Cc3ccc(Cl)c(Cl)c3)CCO2)cc1 (stereo not drawn) [Example 5, N-{[4-(3,4-Dichlorobenzyl)morpholin-2-yl]methyl}-2-[4-(methylthio)phenyl]acetamide]",77.6
13,"Cc1cc(F)ccc1CC(=O)NCC1CN(Cc2ccc(Cl)c(Cl)c2)CCO1 (stereo not drawn) [Example 19, N-{[4-(3,4-Dichlorobenzyl)morpholin-2-yl]methyl}-2-(4-fluoro-2-methylphenyl)acetamide]",832
14,"O=C(Cc1ccc(F)c(F)c1)NCC1CN(Cc2ccc(Cl)c(Cl)c2)CCO1 (stereo not drawn) [Example 6, N-{[4-(3,4-Dichlorobenzyl)morpholin-2-yl]methyl}-2-(3,4-difluorophenyl)acetamide]",138
15,"Cc1oc(-c2ccccc2)nc1CC(=O)NC[C@@H]1CN(Cc2ccc(Cl)c(Cl)c2)CCO1 [Example 55, N-{[(2R)-4-(3,4-Dichlorobenzyl)morpholin-2-yl]methyl}-2-(5-methyl-2-phenyl-1,3-oxazol-4-yl)acetamide]",398
16,"CN(C)S(=O)(=O)c1ccc(CC(=O)NCC2CN(Cc3ccc(Cl)c(Cl)c3)CCO2)cc1 (stereo not drawn) [Example 7, N-{[4-(3,4-Dichlorobenzyl)morpholin-2-yl]methyl}-2-{4-[(dimethylamino)sulfonyl]phenyl}acetamide salt with formic acid (1:1)]",15.1
17,"O=C(Cc1cccc(Cl)c1)NCC1CN(Cc2ccc(Cl)c(Cl)c2)CCO1 (stereo not drawn) [Example 8, 2-(3-Chlorophenyl)-N-{[4-(3,4-dichlorobenzyl)morpholin-2-yl]methyl}acetamide]",145
18,CS(=O)(=O)Nc1ccc(CC(=O)NCC2CN(Cc3ccc(F)c(F)c3)CCO2)cc1 (stereo not drawn) [Example 45],13.2
19,O=C(Cc1ccc(C(F)(F)F)cc1)NCC1CN(Cc2ccc(Cl)c(Cl)c2)CCO1 (stereo not drawn) [Example 14],339
20,O=C(Cn1nnc(-c2ccccc2)n1)NC[C@H]1CN(Cc2ccc(Cl)c(Cl)c2)CCO1 [Example 44],6.76

# Target: eosinophil chemotaxis
# Experiment: Eosinophil chemotaxis assay (eotaxin-induced)
# Assay type: cell-based, human
# Conditions: functional pKi (fpKi)
# Method: (b) Eosinophil Chemotaxis Assay.
# Compounds were evaluated for their inhibitory effect on eosinophil chemotaxis. Eosinophils were purified from human peripheral blood by standard CD16 cell depletion using a Miltenyi cell separation column and a magnetic Super Macs magnet as previously described (Motegi & Kita, 1998; J. Immunology. 161:4340-6). Cells were re-suspended in RPMI 1640/10% FCS solution and incubated with calcein-AM (Molecular Probes) at 37° C. for 30 mins. Following incubation, the eosinophils were centrifuged at 400 g for 5 min and re-suspended in RPMI/FCS at 2.2 million/ml. Cells. were then incubated in the presence of increasing concentration of compounds (1 pM to 30 μM) at 37° C. for 30 mins. For control responses cells were incubated with RPMI/FCS only. The agonist eotaxin (either a concentration response curve or for the functional inhibition curves an EC80 concentration) was added to the lower chamber of a 96 well chemotaxis plate (5 μm filter: Receptor Technologies). Eosinophils (50 μl of 2 million/ml cells) were added to the top chamber of the filter plate and incubated at 37° C. for 45 mins. Cells remaining on top of the chemotaxis filter were removed and the number of eosinophils which had migrated were quantified by reading the plate on a fluorescent plate reader. Inhibition curves for the effect of compounds on eosinophil chemotaxis were analysed by fitting the data with a four parameter logistic equation. Functional pK1 values (fpK1) were generated using the equation below (Lazareno & Birdsall, 1995. Br. J. Pharmacol 109: 1110-9). [formula] (c) Guinea-pig Ovalbumin Model
row,Structure (SMILES),CCR-3 Eosinophil Chemotaxis Assay (fpKi)
1,"CN(C)c1ccc(CC(=O)NCC2CN(Cc3ccc(Cl)c(Cl)c3)CCO2)cc1.O=CO (stereo not drawn) [Example 12, N-{[4-(3,4-Dichlorobenzyl)morpholin-2-yl]methyl}-2-[4-(dimethylamino)phenyl]acetamide salt with formic acid (1:1)]",6.82
2,"CS(=O)(=O)c1ccc(CC(=O)NC[C@H]2CN(Cc3ccc(Cl)c(Cl)c3)CCO2)cc1 (single isomer, unassigned) [Example 39]",8.31
3,"O=C(Cc1csc(-c2cnccn2)n1)NCC1CN(Cc2ccc(Cl)c(Cl)c2)CCO1 (stereo not drawn) [Example 37, N-{[4-(3,4-Dichlorobenzyl)morpholin-2-yl]methyl}-2-(2-pyrazin-2-yl-1,3-thiazol-4-yi)acetamide]",7.97
4,"Cc1oc(-c2ccccc2)nc1CC(=O)NC[C@H]1CN(Cc2ccc(Cl)c(Cl)c2)CCO1 [Example 54, N-{[(2S)-4-(3,4-Dichlorobenzyl)morpholin-2-yl]methyl}-2-(5-methyl-2-phenyl-1,3-oxazol-4-yl)acetamide]",7.96
5,NS(=O)(=O)c1cccc(CC(=O)NC[C@H]2CN(Cc3ccc(Cl)c(Cl)c3)CCO2)c1 [Example 162],8.2
6,"O=C(Cc1csc(-c2cnccn2)n1)NC[C@H]1CN(Cc2ccc(Cl)c(Cl)c2)CCO1 [Example 42, N-([(2S)-4-(3,4-Dichlorobenzyl)morpholin-2-yl]methyl}-2-(2-pyrazin-2-yl-1,3-thiazol-4-yl)acetamide]",9.32
7,"O=C(Cc1cc(C(F)(F)F)cc(C(F)(F)F)c1)NCC1CN(Cc2ccc(Cl)c(Cl)c2)CCO1 (stereo not drawn) [Example 17, 2-[3,5-Bis(trifluoromethyl)phenyl]-N-{[4-(3,4-dichlorobenzyl)morpholin-2-yl]methyl}acetamide]",6.24
8,"CS(=O)(=O)c1ccc(CC(=O)NCC2CN(Cc3ccc(Cl)c(Cl)c3)CCO2)cc1.O=CO (stereo not drawn) [Example 2, N-{[4-(3,4-Dichlorobenzyl)morpholin-2-yl]methyl}-2-[4-(methylsulfonyl)phenyl]acetamide salt with formic acid (1:1)]",6.51
9,"CS(=O)(=O)Nc1cccc(CC(=O)NC[C@H]2CN(Cc3ccc(Cl)s3)CCO2)c1 [Example 49, N-({(2S)-4-[(5-Chlorothien-2-yl)methyl]morpholin-2-yl}methyl)-2-{3-[(methylsulfonyl)amino]phenyl]acetamide]",8.07
10,"O=C(Cc1cccc(F)c1)NCC1CN(Cc2ccc(Cl)c(Cl)c2)CCO1 (stereo not drawn) [Example 3, N-{[4-(3,4-Dichlorobenzyl)morpholin-2-yl]methyl}-2-(3-fluorophenyl)acetamide]",7.15
11,"C[C@H]1CO[C@H](CNC(=O)Cc2ccc(Cl)cc2)CN1Cc1ccc(Cl)c(Cl)c1 (relative stereo) [Example 27, 2-(4-Chlorophenyl)-N-{[(trans)-4-(3,4-dichlorobenzyl)-5-methylmorpholin-2-yl]methyl}acetamide]",7.39
12,"O=C(Cc1ccsc1)NCC1CN(Cc2ccc(Cl)c(Cl)c2)CCO1 (stereo not drawn) [Example 32, N-{[4-(3,4-Dichlorobenzyl)morpholin-2-yl]methyl}-2-thien-3-ylacetamide]",7.32
13,"Cc1oc(-c2ccc(F)cc2)nc1CC(=O)NCC1CN(Cc2ccc(Cl)c(Cl)c2)CCO1 (stereo not drawn) [Example 41, N-{[4-(3,4-Dichlorobenzyl)morpholin-2-yl]methyl}-2-[2-(4-fluorophenyl)-5-methyl-1,3-oxazol-4-yl]acetamide]",7.99
